Data: patent publication US20220401408A1, “COMPOSITIONS AND METHODS FOR RESCUING RETINAL AND CHOROIDAL STRUCTURE AND FUNCTION” (AUCKLAND UNISERVICES LIMITED, priority 2019, published 2022)

System: light damaged rats
Assay: Optical coherence tomography (OCT) of retinal layers and choroid in light damage model
Type: in vivo, Sprague Dawley (SD) rats
Protocol: Retina Light Damage Model of Dry Age-Related Macular Degeneration—The intense light damage model was prepared and carried out as described in previous studies. Mat Nor N, Guo C X, Rupenthal ID, Chen Y S, Green C R, Acosta M L. Sustained Connexin43 Mimetic Peptide Release From Loaded Nanoparticles Reduces Retinal and Choroidal Photodamage. Invest Ophthalmol Vis Sci. 2018; 59:3682-93; Guo C X, Mat Nor M N, Danesh-Meyer H V, Vessey K A, Fletcher E L, O'Carroll S J, et al. Connexin43 Mimetic Peptide Improves Retinal Function and Reduces Inflammation in a Light-Damaged Albino Rat Model. Invest Ophthalmol Vis Sci. 2016; 57:3961-73; Guo C X, Tran H, Green C R, Danesh-Meyer H V, Acosta M L. Gap junction proteins in the light-damaged albino rat. Mol Vis. 2014; 20:670-82; Noell W K, Walker V S, Kang B S, Berman S. Retinal damage by light in rats. Invest Ophthalmol. 1966; 5:450-73. The light damage rat model was selected as it allows direct comparison with this and other drugs. Kim Y, Griffin J M, Nor M N M, Zhang J, Freestone P S, Danesh-Meyer H V, et al. Tonabersat Prevents Inflammatory Damage in the Central Nervous System by Blocking Connexin43 Hemichannels. Neurotherapeutics. 2017; 14:1148-65; Mat Nor N, Guo C X, Rupenthal ID, Chen Y S, Green C R, Acosta M L, supra; Guo C X, Mat Nor M N, Danesh-Meyer H V, Vessey K A, Fletcher E L, O'Carroll S J, et al., supra. […] All experimental procedures were approved by the University of Auckland Animal Ethics Committee, approval No. 001462 and comply with the Association for Research in Vision and Ophthalmology (ARVO) statement for the use of animals in eye research. Six to eight-week old albino Sprague Dawley (SD) rats (200-250 g; male or female) were used. Adult SD rats were exposed to continuous bright light for 24 hours, consistently starting at 9:00 am to minimize possible time-of-day variability. Light exposure was to two animals at a time to prevent rats from taking cover using each other as a shield. The LD protocol and intervention was repeated until the number of individuals for each dose group was obtained (n=7 per group). The light luminance was 2700 lux, generated using fluorescent lamps (Philips Master TLD 18W/965; Koninklijke Philips Electronics N.V., China) directly above the animal cages. The lamps were cool and emitted broadband light, from 380 to 760 nm wavelength, with the average intensity at the top of the cage being 120 W/m2. Animals were free to move within the cage with access to food and water ad libidum. Baseline electroretinography (ERG) readings and optical coherence tomography (OCT) images were collected prior to the light damage. After light exposure, animals were returned to normal light-dark cycle conditions (12 hours light, 174 lux and 12 hours darkness, <62 lux) for 24 hours, 1 week or 2 weeks (and for one group 3 months).
Tonabersat treatment of light damaged rats—LD rats were randomly assigned to low, middle or high dose of tonabersat (n=7 per group). The mixture of tonabersat in peanut butter was prepared fresh for each experiment. Three oral tonabersat doses were tested (n=7 per group) with follow up to 2 weeks post-injury, and the highest dose group then split with three animals taken for histological analysis, and four animals followed to 3 months post-injury. There was a ten-animal vehicle only control group. The group of rats that were kept for 3 months were maintained in separate cages for drug or vehicle-treated animals, but were kept under the same light conditions. Tonabersat was fed to animals in peanut butter at 0.26 mg/kg (on average 0.08 mg delivered, estimated circulating concentration 10 μM), 0.8 mg/kg (average of 0.24 mg delivered; 30 μM circulating) or 2.4 mg/kg (on average 0.72 mg delivered; 90 μM circulating) following consideration of previous unsuccessful human trial dosing levels. Silberstein S D. Tonabersat, a novel gap-junction modulator for the prevention of migraine. Cephalalgia. […]

[1] = 2.4 mg/kg oral, 3 months post treatment, p<0.001
[2] = all three oral doses, 24 hours, 1 week and 2 weeks post light damage

CC(=O)c1ccc2c(c1)[C@H](NC(=O)c1ccc(F)c(Cl)c1)[C@H](O)C(C)(C)O2 [tonabersat, N-[(3S,4S)-6-acetyl-3-hydroxy-2,2-dimethyl-3,4-dihydrochromen-4-yl]-3-chloro-4-fluorobenzamide]
ONL thickness compared to same animals prior to light damage (2.4 mg/kg oral, 3 months): no difference | choroidal thickness compared to same rats prior to light damage (2.4 mg/kg oral, 3 months): no difference | choroidal thickness compared to vehicle treatment group [1]: significantly preserved | retinal thickness compared to vehicle treatment group [1]: significantly preserved | INL thickness compared to same animals prior to light damage (2.4 mg/kg oral, 3 months, p<0.05): slightly reduced thickness | choroidal thickness (OCT) [2]: significantly preserved | retinal thickness (OCT) [2]: significantly preserved | thinning in the ONL or choroid (lowest and middle dose (0.26, 0.8 mg/kg), up to 2 weeks post light damage): some thinning at the lowest and middle dose, it was not significant
